6 compounds from ChEMBL document CHEMBL1132727, “A novel pyridazinone derivative as a nonprostanoid PGI2 agonist” (Bioorg Med Chem Lett, 2000) can be followed below.

The species named for one series is Homo sapiens. Kind of series: Tested for Concentration required for the inhibition of ADP-induced aggregation of human platelets. It counts as functional.
The nature of series [1]: Half-life after intravenous administration in female rat. Conditions: in vivo. It is filed as ADME, organism-based.
Another series concerns the target Prostacyclin receptor (Homo sapiens, UniProt P43119). Kind of series: Tested for inhibition of 3[H]-iloprost binding to human IP receptor.
Series [2] is described as follows: Half-life after intravenous administration in male rat. It counts as ADME, organism-based. The note with it: in vivo.
The nature of series [3]: Half-life after administration of 3.2 mg/kg intravenously in male rat. It counts as ADME, organism-based. On the set-up: dose 3.2 mg/kg, route intravenous. Conditions: in vivo, iv.
Series [4] in a line: Oral Bioavailability after administration of 10 mg/kg in male rat. It counts as ADME, organism-based. The note with it: in vivo, read-out: Bioavailabiility.

Each structure is given as a SMILES string.

Prostacyclin receptor, sequence (P43119 whole entry): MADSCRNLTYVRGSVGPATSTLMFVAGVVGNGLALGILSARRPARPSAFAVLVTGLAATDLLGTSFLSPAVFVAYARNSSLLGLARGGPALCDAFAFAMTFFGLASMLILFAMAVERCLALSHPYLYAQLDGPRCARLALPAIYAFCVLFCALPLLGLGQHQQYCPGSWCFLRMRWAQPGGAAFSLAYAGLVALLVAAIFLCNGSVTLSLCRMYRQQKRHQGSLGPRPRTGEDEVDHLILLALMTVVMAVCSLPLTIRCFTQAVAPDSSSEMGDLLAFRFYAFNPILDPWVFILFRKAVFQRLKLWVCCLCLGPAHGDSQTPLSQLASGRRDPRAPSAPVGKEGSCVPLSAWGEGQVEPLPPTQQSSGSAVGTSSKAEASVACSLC

With `O=C(O)COc1cccc2c1CC[C@H](Cn1cc(C(c3ccccc3)c3ccccc3)ccc1=O)C2`, the concentration for half-maximal inhibition (IC50) (usually the concentration that gives 50% inhibition) in the series filed under Homo sapiens is 130 nM.

On to `O=C(O)COc1cccc2c1CC[C@H](Cn1cccc(C(c3ccccc3)c3ccccc3)c1=O)C2`, for which, in the series listed under Homo sapiens, the IC50 is greater than 10000 nM.

The compound `O=C(O)COc1cccc2c1CCC(Cn1cc(C(c3ccccc3)c3ccccc3)cn1)=C2` yielded an IC50 in the series filed under Homo sapiens of 41 nM.

As to `CC#CCC(C)[C@H](O)/C=C/[C@H]1[C@H](O)CC2Oc3c(CCCC(=O)[O-])cccc3[C@@H]21.[Na+]` (some centres not stated), the results for the half-life in series [1] and in series [2] were 3.3 h and 0.43 h, respectively. The Ki (usually a dissociation constant, usually derived from enzyme kinetics or from competition with a known ligand) at Prostacyclin receptor came out at 80 nM. In the series listed under Homo sapiens, it took 4.3 nM to reach half-maximal inhibition (IC50).

Regarding `O=C(O)COc1cccc2c1CC[C@H](Cn1nc(C(c3ccccc3)c3ccccc3)ccc1=O)C2`, the half-life – broadly, how long it takes for the measured level to halve – in series [3] was 4.3 h. At Prostacyclin receptor, the Ki was 94 nM. Moreover, the IC50 in the series listed under Homo sapiens worked out at 81 nM. The bioavailability in series [4] was determined as 56%.

`CCC/C(CC1CCc2c(cccc2OCC(=O)O)C1)=N\OC(c1ccccc1)c1ccccc1` (configuration not stated) [AP-227]: in the series filed under Homo sapiens, the IC50 worked out at 150 nM. This lies in the sub-micromolar range.
